Experimental findings from US20190119251A1, “AMIDE-SUBSTITUTED ARYLTRIAZOLE DERIVATIVES AND USES THEREOF” (BAYER PHARMA AKTIENGESELLSCHAFT, priority 2016, published 2019) are described below.

One test has as its target T1, human V2 receptor (Homo sapiens, UniProt P30518).
T1 construct: expressed in transfected cells; host or cells: CHO K1 (Chinese hamster ovary) expressing firefly luciferase under a CRE-responsive promoter
Kind of test: Cellular in vitro assay for determining vasopressin receptor activity (V2 cell line, CRE-luciferase). The conditions noted are these: CHO cell line transfected with the human V2 receptor; agonist [Arg8]-vasopressin at EC50 concentration; 3 hours incubation; read-out: IC50 hV2. Format: cell-based. The method, then:
(§1) B-1. Cellular In Vitro Assay for Determining Vasopressin Receptor Activity
(§2) The identification of agonists and antagonists of the V 1 a and V2 vasopressin receptors from humans, rats and dogs as well as the quantification of the activity of the compounds of the invention is carried out using recombinant cell lines. These cell lines originally derive from a hamster's ovary epithelial cell (Chinese Hamster Ovary, CHO K1, ATCC: American Type Culture Collection, Manassas, Va. 20108, USA). The test cell lines constitutively express the human, rat or dog
(§3) V1 a or V2 receptors. In case of the Gag-coupled V 1 a receptors, cells are also stably transfected with a modified form of the calcium-sensitive photoproteins aequorin (human and rat V1a) or obelin (dog V 1 a), which, after reconstitution with the cofactor coelenterazine, emit light when there are increases in free calcium concentrations [Rizzuto R, Simpson A W, Brini M, Pozzan T, Nature 358, 325-327 (1992); Illarionov B A, Bondar V S, Illarionova V A, Vysotski E S, Gene 153 (2), 273-274 (1995)]. The resulting vasopressin receptor cells react to stimulation of the recombinantly expressed V 1 a receptors by intracellular release of calcium ions, which can be quantified by the resulting photoprotein luminescence. The Gs-coupled V2 receptors are stably transfected into cell lines expressing the gene for firefly luciferase under control of a CRE-responsible promoter. Activation of V2 receptors induces the activation of the CRE-responsive promoter via cAMP increase, thereby inducing the expression of firefly luciferase. The light emitted by photoproteins of V1a cell lines as well as the light emitted by firefly luciferase of V2 cell lines corresponds to the activation or inhibition of the respective vasopressin receptor. The bioluminescence of the cell lines is detected using a suitable luminometer [Milligan G, Marshall F, Rees S, Trends in Pharmacological Sciences 17, 235-237 (1996)].
Vasopressin V2 Receptor Cell Lines:
On the day before the assay, the cells are plated out in culture medium (DMEM/F12, 2% FCS, 2 mM glutamine, 10 mM HEPES) in 384-well microtiter plates and kept in a cell incubator (96% humidity, 5% v/v CO2, 37° C.). On the day of the assay, test compounds in various concentrations and the agonist [Arg^8]-vasopressin at EC50 concentration are added together to the wells, and plates are incubated for 3 hours in a cell incubator. Upon addition of the cell lysis reagent Triton™ and the substrate luciferin, luminescence of firefly luciferase is measured in a luminometer.
(§4) Table 1A below lists individual IC50 values for the compounds of the invention (including racemic mixtures as well as separated enantiomers) that were obtained from cell lines transfected with the human V1a or V2 receptor: […]

Another test addresses T2, human V1a receptor (Homo sapiens, UniProt P37288).
T2 construct: expressed in transfected cells; host or cells: CHO K1 (Chinese hamster ovary), also stably transfected with modified aequorin
Kind of test: Cellular in vitro assay for determining vasopressin receptor activity (V1a cell line, aequorin luminescence). Format: cell-based. The conditions noted are these: for IC50: CHO cell line transfected with the human V1a receptor, agonist [Arg8]-vasopressin at EC50 concentration, read-out: IC50 hV1a; for ratio IC50 hV2/hV1a: ratio of cellular IC50 values, human V2 over human V1a. On the procedure:
as §1, §2, §3
Vasopressin V1a Receptor Cell Lines:
On the day before the assay, the cells are plated out in culture medium (DMEM/F12, 2% FCS, 2 mM glutamine, 10 mM HEPES, 5 μg/ml coelenterazine) in 384-well microtiter plates and kept in a cell incubator (96% humidity, 5% v/v CO2, 37° C.). On the day of the assay, test compounds in various concentrations are placed for 10 minutes in the wells of the microtiter plate before the agonist [Arg^8]-vasopressin at EC50 concentration is added. The resulting light signal is measured immediately in a luminometer.
as §4

The IC50 is the midpoint of a concentration-inhibition curve.

T1 sequence (P30518 whole entry): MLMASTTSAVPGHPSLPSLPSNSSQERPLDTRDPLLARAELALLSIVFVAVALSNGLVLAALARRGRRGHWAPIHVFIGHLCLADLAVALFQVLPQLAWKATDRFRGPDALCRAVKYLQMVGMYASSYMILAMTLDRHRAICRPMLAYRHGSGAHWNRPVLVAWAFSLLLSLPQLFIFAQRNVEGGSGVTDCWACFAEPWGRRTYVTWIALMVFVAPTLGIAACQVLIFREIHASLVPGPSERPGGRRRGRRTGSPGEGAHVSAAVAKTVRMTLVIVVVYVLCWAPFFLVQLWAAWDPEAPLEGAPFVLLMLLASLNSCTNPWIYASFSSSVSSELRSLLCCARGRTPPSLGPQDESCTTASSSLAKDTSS
T2 sequence (P37288 whole entry): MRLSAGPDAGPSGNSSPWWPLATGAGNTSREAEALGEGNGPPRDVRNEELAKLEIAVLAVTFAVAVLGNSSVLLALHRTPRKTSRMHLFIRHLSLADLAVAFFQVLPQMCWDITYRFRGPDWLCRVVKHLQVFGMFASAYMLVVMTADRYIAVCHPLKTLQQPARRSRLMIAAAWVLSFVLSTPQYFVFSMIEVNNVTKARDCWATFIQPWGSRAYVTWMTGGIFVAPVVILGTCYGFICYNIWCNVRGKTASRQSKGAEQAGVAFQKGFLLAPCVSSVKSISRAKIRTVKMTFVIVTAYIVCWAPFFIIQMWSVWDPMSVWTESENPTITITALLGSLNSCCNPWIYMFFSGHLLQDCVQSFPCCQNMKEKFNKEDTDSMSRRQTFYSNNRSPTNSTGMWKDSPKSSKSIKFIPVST

Take `NC(=O)c1nc(Cn2nc(-c3ccc(Cl)cc3)n(C[C@H](O)C(F)(F)F)c2=O)nn1-c1ncccn1` [Example 16, 3-({3-(4-Chlorophenyl)-5-oxo-4-[(2S)-3,3,3-trifluoro-2-hydroxypropyl]-4,5-dihydro-1H-1,2,4-triazol-1-yl}methyl)-1-(pyrimidin-2-yl)-1H-1,2,4-triazole-5-carboxamide]: the concentration for half-maximal inhibition (IC50) on human V2 receptor was found to be 2250 nM. In addition, at human V1a receptor, the half-inhibitory concentration (IC50) amounted to 690 nM and the “ratio IC50 hV2/hV1a” value worked out at 3.3.
Taken in the same sequence, the figures for `NC(=O)c1nc(Cn2nc(-c3ccc(Cl)cc3)n(C[C@H](O)C(F)(F)F)c2=O)nn1-c1ccccc1[N+](=O)[O-]` [Example 24, 3-({3-(4-Chlorophenyl)-5-oxo-4-[(2S)-3,3,3-trifluoro-2-hydroxypropyl]-4,5-dihydro-1H-1,2,4-triazol-1-yl}methyl)-1-(2-nitrophenyl)-1H-1,2,4-triazole-5-carboxamide] were 30.5 nM, 2.6 nM and 11.7.
For the compound `NC(=O)c1nc(Cn2nc(-c3ccc(Cl)cc3)n(C[C@H](O)C(F)(F)F)c2=O)nn1-c1ccccc1Cl` [Example 35, 1-(2-Chlorophenyl)-3-({3-(4-chlorophenyl)-5-oxo-4-[(2S)-3,3,3-trifluoro-2-hydroxypropyl]-4,5-dihydro-1H-1,2,4-triazol-1-yl}methyl)-1H-1,2,4-triazole-5-carboxamide], the IC50 at human V2 receptor came out at 8.46 nM. Besides, at human V1a receptor, the IC50 amounted to 0.77 nM and the “ratio IC50 hV2/hV1a” value is 11.1.
`NC(=O)c1nc(Cn2nc(-c3ccc(Cl)cc3)n(C[C@H](O)C(F)(F)F)c2=O)nn1-c1cc(Cl)ccn1` [Example 15, 3-({3-(4-Chlorophenyl)-5-oxo-4-[(2S)-3,3,3-trifluoro-2-hydroxypropyl]-4,5-dihydro-1H-1,2,4-triazol-1-yl}methyl)-1-(4-chloropyridin-2-yl)-1H-1,2,4-triazole-5-carboxamide]: the half-maximal inhibitory concentration (IC50) at human V2 receptor was determined as 35 nM; on human V1a receptor, 175 nM. The “ratio IC50 hV2/hV1a” value at human V1a receptor came out at 0.2.
On to `NC(=O)c1nc(Cn2nc(-c3ccc(Cl)cc3)n(C[C@H](O)C(F)(F)F)c2=O)nn1-c1c(F)cccc1Cl` [Example 21, 1-(2-Chloro-6-fluorophenyl)-3-({3-(4-chlorophenyl)-5-oxo-4-[(2S)-3,3,3-trifluoro-2-hydroxypropyl]-4,5-dihydro-1H-1,2,4-triazol-1-yl}methyl)-1H-1,2,4-triazole-5-carboxamide], for which the IC50 on human V2 receptor came to 5.25 nM. On human V1a receptor, the IC50 is 0.75 nM and the “ratio IC50 hV2/hV1a” value is 7.0.
On the same counts, the results for `NC(=O)c1nc(Cn2nc(-c3ccc(Cl)cc3)n(C[C@H](O)C(F)(F)F)c2=O)nn1-c1cccnc1Cl` [Example 10, 3-({3-(4-Chlorophenyl)-5-oxo-4-[(2S)-3,3,3-trifluoro-2-hydroxypropyl]-4,5-dihydro-1H-1,2,4-triazol-1-yl}methyl)-1-(2-chloropyridin-3-yl)-1H-1,2,4-triazole-5-carboxamide] are 152 nM, 97.5 nM and 1.6.
Taken in the same sequence, the figures for `NC(=O)c1nc(Cn2nc(-c3ccc(Cl)cc3)n(C[C@H](O)C(F)(F)F)c2=O)nn1-c1ccc(F)cc1Cl` [Example 26, 1-(2-Chloro-4-fluorophenyl)-3-({3-(4-chlorophenyl)-5-oxo-4-[(2S)-3,3,3-trifluoro-2-hydroxypropyl]-4,5-dihydro-1H-1,2,4-triazol-1-yl}methyl)-1H-1,2,4-triazole-5-carboxamide] were 17 nM, 3.5 nM and 4.9.
On the same counts, the results for `NC(=O)c1nc(Cn2nc(-c3ccc(Cl)cc3)n(C[C@H](O)C(F)(F)F)c2=O)nn1-c1cccc(F)c1` [Example 32, 3-({3-(4-Chlorophenyl)-5-oxo-4-[(2S)-3,3,3-trifluoro-2-hydroxypropyl]-4,5-dihydro-1H-1,2,4-triazol-1-yl}methyl)-1-(3-fluorophenyl)-1H-1,2,4-triazole-5-carboxamide] are 23.9 nM, 18.3 nM and 1.3.
